Consider 36 molecules from US5726162A (priority 1996, dated 1998).

Read-outs that look alike come from different tables or passages of the source.

One assay deals with fungal mycelium. As to the kind of experiment: organism not typed. In kind it is cell-based. Particulars: read-out: % growth inhibition.
Assay [1] concerns Magnaporthe grisea (Pyricularia oryzae). As to the kind of experiment: whole plant or invertebrate. Particulars: Pyricularia oryzae, 144 h, read-out: % Control RB. It counts as in vivo, Magnaporthe grisea (Pyricularia oryzae) on M201 rice plants.
Assay [2] deals with Thanatephorus cucumeris (Rhizoctonia solani). As to the kind of experiment: In vivo test b) Rice Sheath Blight (RSB), 24 hour preapplication protectant, % control. Particulars: for pest or weed control at 200 ppm: read-out: % Control RSB. The procedure:
Compounds were tested at 200 ppm as a twenty-four hour preapplication protectant test prior to inoculation.
b) Rice Sheath Blight (RSB)
Thanatephorus cucumeris (Rhizoctonia solani) mycelia were grown for six days in potato dextrose broth in shake culture. Drained mycelial mats were blended with an approximately equal weight of rice flour and five parts water. This slurry was dispensed onto the soil surface of pots containing rice seedlings previously treated with experimental compounds. The plants were placed in a mist chamber at 25°-28° C. for 48 hours. Following two more days at 25° C. and 70-90% relative humidity the plants were evaluated for percent disease control compared to check plants.

The test system of a further assay is fungal inoculum. As to the kind of experiment: organism not typed. In kind it is cell-based. Conditions: read-out: % growth inhibition.
The next assay relates to Candida albicans. As to the kind of experiment: Activity against Candida albicans in microtiter plates, % control of growth. It counts as cell-based. The procedure:
The activity against Candida albicans was determined using the following test protocol.
Conidia and mycelium from the Candida albicans culture maintained on potato dextrose agar plates were lightly scraped off into yeast extract-dextrose broth (YDB) so that mostly conidia was used as inoculum. The conidial suspsension was strained through a double layer of cheesecloth to remove mycelial clumps. The inoculum mixture was placed in microtiter plates using a 12-tipped pipet. 175 microliters were placed in each well of the microliter plates and the plates were placed in the refrigerator overnight. There were two replications.
The compounds to be tested were dissolved in 1:1 acetone:methanol and 100 ppm of the compound solution were placed in a well of the prepared microtiter plates.
The microtiter plates were incubated for 7 days at room temperature after addition of the compounds. Percent control was visually estimated using a microtiter plate reading mirror. Readings were made at 1, 2, 3, and/or 7 days after treatment.

The mark [3] stands for this setting: 24 h, 1 day after treatment, read-out: % control of growth +1.
Where [4] appears, read: 48 h, 2 days after treatment, read-out: % control of growth +2.
Where [5] appears, read: 72 h, 3 days after treatment, read-out: % control of growth +3.

As a reminder, the inhibition is the change of the read-out against control, counted positive when it falls.

With `CCC#CCN1N=C(c2ccc(Cl)cc2)CC=C1Br` [Compound 160], in the assay on fungal mycelium, the inhibition at 1 ppm was determined as 100%. Further, the pest or weed control at 200 ppm in assay [1] turned out to be 0%; in assay [2] (200 ppm, protectant), 95%.
For `CC(C)(C)N1N=C(c2ccc(Cl)cc2)CCC1=O` [Compound 15, 6-(4-chlorophenyl)-4,5-dihydro-2-t-butylpyridazinone], the inhibition at 50 ppm with fungal inoculum was 37.1%. Also, the pest or weed control at 200 ppm is 0% in assay [1] and 50% in assay [2] (200 ppm, protectant).
With `CCC#CCN1N=C2c3ccc(Cl)cc3C(C)C2CC1=O` (stereo not drawn) [Compound 155], in the assay on fungal mycelium, the inhibition at 10 ppm was 92%. Also, the pest or weed control at 200 ppm is 100% in assay [1] and 90% in assay [2] (200 ppm, protectant).
Regarding `CC#CCN1N=C(c2cccnc2)CCC1=O` [Compound 132], the inhibition at 200 ppm in the assay on fungal mycelium worked out at 91.8%. The pest or weed control at 200 ppm in assay [1] turned out to be 0%; in assay [2] (200 ppm, protectant), 0%.
Consider `C/C=C/C#CCN1N=C(c2ccc(Cl)cc2)CCC1=O` [Compound 103], for which the inhibition at 1 ppm in the assay on fungal mycelium turned out to be 100%. Also, the pest or weed control at 200 ppm amounted to 95% in assay [1] and 0% in assay [2] (200 ppm, protectant).
`CCC#CCN1N=C(c2ccc(Cl)cc2)CC=C1Cl` [Compound 157, 6-(4-chlorophenyl)-3-chloro-2-(2'-pentyn-1-yl)-2,5-dihydropyridazine]: the inhibition at 10 ppm with fungal mycelium was 100%. The pest or weed control at 200 ppm amounted to 10% in assay [1] and 0% in assay [2] (200 ppm, protectant).
Take `CC#CCCN1N=C(c2ccc(Cl)cc2)CCC1=O` [Compound 21]: the inhibition at 100 ppm in the assay on fungal inoculum stood at 45.8%. Further, the pest or weed control at 200 ppm in assay [1] was determined as 0%; in assay [2] (200 ppm, protectant), 0%.
Take `O=C1CCC(c2ccc(Cl)cc2)=NN1Cc1ccccc1` [Compound 10]: the inhibition at 100 ppm in the assay with fungal inoculum came to 100%. In addition, the pest or weed control at 200 ppm in assay [2] turned out to be 80%.
On to `COc1ccc(C2=NN(CCCO)C(=O)CC2)cc1` [Compound 2], for which the inhibition at 100 ppm in the assay on fungal inoculum is 0%. The pest or weed control at 200 ppm in assay [1] came out at 0%; in assay [2] (200 ppm, protectant) it was 0%.
`CC#CCN1N=C(c2ccc(OC)cc2)CCC1=O` [Compound 11, 6-(4-methoxyphenyl)-2-(2'-butynyl)-4,5-dihydropyridazinone]: the inhibition at 10 ppm in the assay on fungal inoculum was 87.7%. The pest or weed control at 200 ppm amounted to 0% in assay [1] and 0% in assay [2] (200 ppm, protectant).
On to `O=C1CCC(c2ccc(Cl)c(Cl)c2)=NN1CCCO` [Compound 5], for which the inhibition at 100 ppm in the assay with fungal inoculum turned out to be 75%. Moreover, the pest or weed control at 200 ppm in assay [1] was 0%; in assay [2] (200 ppm, protectant) it was 50%.
As for `CCC#CCn1nc(-c2ccc(F)c(Cl)c2)ccc1=O` [Compound 129], the inhibition at 1 ppm in the assay on fungal mycelium amounted to 100%. In addition, the pest or weed control at 200 ppm came out at 0% in assay [1] and 0% in assay [2] (200 ppm, protectant).
Regarding `CCC#CCn1cc(-c2ccc(Cl)cc2)ccc1=O` [Compound 145, 5-(4-chlorophenyl)-1-(2-pentyn-1-yl)-2-pyridinone], the inhibition at 1 ppm in the assay with fungal inoculum was 96%. Besides, in assay [1], the pest or weed control at 200 ppm came out at 95%. In assay [2] (100 ppm, protectant), this molecule returned a pest or weed control at 100 ppm of 0%.
On to `C/C=C\C#CCN1N=C(c2ccc(Cl)cc2)CCC1=O` [Compound 102], for which the inhibition at 1 ppm with fungal mycelium turned out to be 100%. Besides, the pest or weed control at 200 ppm in assay [1] stood at 99%; in assay [2] (200 ppm, protectant), 0%.
As to `CC#CCN1N=C(c2ccc(Cl)cc2)CCC1=O` [Compound 1], in the assay on fungal inoculum, the inhibition at 5 ppm came to 92.7%. Further, the pest or weed control at 200 ppm amounted to 90% in assay [1] and 0% in assay [2] (200 ppm, protectant).
On the same counts, the results for `CC#CCN1N=C(c2ccc(C)cc2)CCC1=O` [Compound 18] are 88.4%, 0% and 0%.
As to `CC#CCN1N=C(C=Cc2ccc(C(C)(C)C)cc2)CCC1=O` [Compound 107], the inhibition at 200 ppm with fungal mycelium was determined as 83.7%. For the same molecule, the pest or weed control at 200 ppm is 0% in assay [1] and 0% in assay [2] (200 ppm, protectant).
Turning to `CC#CCN1N=C(c2ccc(Cl)cc2Cl)CCC1=O` [Compound 19], the inhibition at 100 ppm in the assay on fungal inoculum came to 96.8%. Also, the pest or weed control at 200 ppm in assay [1] came to 50%; in assay [2] (200 ppm, protectant) it was 0%.
Consider `CC#CCn1nc(-c2ccc(Cl)cc2)ccc1=O` [Compound 108], for which, in the assay with fungal inoculum, the inhibition at 5 ppm was 100%. In addition, the pest or weed control at 200 ppm in assay [1] came out at 95%; in assay [2] (200 ppm, protectant), 50%.
For `CC#CCN1N=C(c2ccccc2)CCC1=O` [Compound 9], the inhibition at 100 ppm in the assay on fungal inoculum came to 94.4%. Further, the pest or weed control at 200 ppm in assay [1] amounted to 0%; in assay [2] (200 ppm, protectant), 0%.
For `CCC(O)CN1N=C(c2ccc(Cl)cc2)CCC1=O` (stereo not drawn) [Compound 4], the inhibition at 100 ppm in the assay on fungal inoculum worked out at 26.7%. Also, the pest or weed control at 200 ppm stood at 0% in assay [1] and 0% in assay [2] (200 ppm, protectant).
In the case of `C#CC=CCN1N=C(c2ccc(Cl)cc2)CCC1=O` [Compound 84], the inhibition at 50 ppm in the assay with fungal inoculum worked out at 75.8%. Moreover, the pest or weed control at 200 ppm in assay [1] was found to be 95%; in assay [2] (200 ppm, protectant), 0%.
Regarding `CCC#CCn1nc(-c2ccc(Cl)cc2)c2ccccc2c1=O` [Compound 154], the inhibition at 10 ppm in the assay on fungal mycelium was 16%. For the same molecule, the pest or weed control at 200 ppm was found to be 50% in assay [1] and 0% in assay [2] (200 ppm, protectant).
As to `CCC#CCN1N=C(c2ccc(Cl)cc2)CC=C1n1cncn1` [Compound 159], the inhibition at 1 ppm with fungal mycelium worked out at 100%. Besides, the pest or weed control at 200 ppm came out at 0% in assay [1] and 0% in assay [2] (200 ppm, protectant).
On to `CCC#CCn1nc(-c2ccc(Br)cc2)ccc1=O` [Compound 121], for which the inhibition at 1 ppm in the assay with fungal mycelium worked out at 100%. The pest or weed control at 200 ppm in assay [1] came out at 95%. Also, the inhibition of growth at 100 ppm in the assay with Candida albicans (setting [3]), in the assay with Candida albicans (setting [4]) and in the assay with Candida albicans (setting [5]) was 100% each time.
With `CCC#CCn1nc(-c2ccc(Br)c(F)c2)ccc1=O` [Compound 127], the inhibition at 1 ppm with fungal mycelium was 100%. Besides, the pest or weed control at 200 ppm in assay [1] was 0%. Also, the inhibition of growth at 100 ppm with Candida albicans (setting [3]), with Candida albicans (setting [4]) and in the assay on Candida albicans (setting [5]) was 100% each time.
As for `CC=CC#CCN1N=C(c2ccc(Cl)cc2)CCC1=O` [Compound 101], the inhibition at 1 ppm with fungal mycelium was 100%. Moreover, the pest or weed control at 200 ppm was determined as 75% in assay [1] and 0% in assay [2] (200 ppm, protectant).
Consider `CCC#CCN1N=C(c2ccc(Cl)cc2)CCC1=S` [Compound 153, 6-(4-chlorophenyl)-2-(2'-pentynyl)-4,5-dihydropyridazinthione], for which the inhibition at 10 ppm with fungal mycelium was 90.9%. Also, the pest or weed control at 200 ppm in assay [1] was determined as 0%. Also, the inhibition of growth at 100 ppm in the assay on Candida albicans (setting [3]), in the assay on Candida albicans (setting [4]) and in the assay with Candida albicans (setting [5]) was 100% throughout.
`CCC#CCN1N=C(c2ccc(-c3ccccc3)cc2)CCC1=O` [Compound 79]: the inhibition at 50 ppm with fungal mycelium came to 17%. Moreover, the pest or weed control at 200 ppm in assay [1] came out at 100%; in assay [2] (200 ppm, protectant) it was 75%.
In the case of `CC(C)C#CCN1N=C(c2ccc(Cl)cc2)CCC1=O` [Compound 34], the inhibition at 10 ppm in the assay on fungal inoculum stood at 100%. The pest or weed control at 200 ppm in assay [1] was 90%. Moreover, the inhibition of growth at 100 ppm in the assay with Candida albicans (setting [3]), with Candida albicans (setting [4]) and in the assay with Candida albicans (setting [5]) was 100% in each case.
Take `CCC#CCN1N=C(c2cc(F)c(Cl)c(F)c2)CCC1=O` [Compound 90]: the inhibition at 1 ppm in the assay with fungal mycelium came to 100%. Moreover, the pest or weed control at 200 ppm stood at 0% in assay [1] and 95% in assay [2] (200 ppm, protectant).
Regarding `C=CC#CCN1N=C(c2ccc(Cl)cc2)CCC1=O` [Compound 56, 6-(4-chlorophenyl)-2-(3'-vinyl-2'-propynyl)-4,5-dihydropyridazinone], in the assay on fungal inoculum, the inhibition at 1 ppm is 100%. Besides, the pest or weed control at 200 ppm in assay [1] is 100%. Further, the inhibition of growth at 100 ppm in the assay with Candida albicans (setting [3]), in the assay with Candida albicans (setting [4]) and in the assay with Candida albicans (setting [5]) was 100% throughout.
Take `CCC#CCN1N=C(c2ccc(C)cc2)CCC1=O` [Compound 80]: the inhibition at 2.5 ppm in the assay on fungal mycelium worked out at 100%. Besides, the pest or weed control at 200 ppm in assay [1] is 99%; in assay [2] it was 0%.
In the case of `O=C1CCC(c2ccc(Cl)cc2)=NN1CC#CC(F)F` [Compound 89], the inhibition at 10 ppm in the assay on fungal mycelium was 100%. In addition, the pest or weed control at 200 ppm in assay [1] was determined as 95%; in assay [2] (200 ppm, protectant) it was 0%.
In the case of `CCC#CCN1N=C(c2ccc(F)c(Cl)c2)CCC1=O` [Compound 104], the inhibition at 5 ppm with fungal mycelium came out at 100%. For the same molecule, the pest or weed control at 200 ppm in assay [1] was 0%; in assay [2] (200 ppm, protectant), 0%.
In the case of `O=C1CCC(c2ccc(Cl)cc2)=NN1Cc1cccc(Cl)c1` [Compound 105], the inhibition at 10 ppm in the assay with fungal mycelium is 33.3%. Further, the pest or weed control at 200 ppm in assay [1] was 75%; in assay [2] (200 ppm, protectant), 0%.
